According to ChEMBL document CHEMBL4699612, “Discovery of thiosemicarbazone-containing compounds with potent anti-proliferation activity against drug-resistant K562/A02 cells” (Bioorg Med Chem Lett, 2020):
Values belong to the compound of their own block, whether it stands above or below them. Activity calls are given as the source filed them. The calls are words filed in the database; no cut-off is given here.

Legend:
Histone deacetylase 1 = Histone deacetylase 1 (Homo sapiens, UniProt Q13547); assay: Inhibition of recombinant human HDAC1 using Boc-Lys(Ac)-AMC as substrate incubated for 60 mins by fluorimetric assay
K562 [1] = assay: Antiproliferative activity against human K562 cells by MTT assay; format: functional, cell-based
K562/A02 [2] = assay: Antiproliferative activity against human K562/A02 cells overexpressing P-gp by MTT assay; format: functional, cell-based
Histone deacetylase 8 = molecular target: T1, Histone deacetylase 8 (Homo sapiens, UniProt Q9BY41); assay: Inhibition of recombinant human HDAC8 using Boc-Lys(Ac)-AMC as substrate incubated for 60 mins by fluorimetric assay
T1 sequence (Q9BY41 whole entry): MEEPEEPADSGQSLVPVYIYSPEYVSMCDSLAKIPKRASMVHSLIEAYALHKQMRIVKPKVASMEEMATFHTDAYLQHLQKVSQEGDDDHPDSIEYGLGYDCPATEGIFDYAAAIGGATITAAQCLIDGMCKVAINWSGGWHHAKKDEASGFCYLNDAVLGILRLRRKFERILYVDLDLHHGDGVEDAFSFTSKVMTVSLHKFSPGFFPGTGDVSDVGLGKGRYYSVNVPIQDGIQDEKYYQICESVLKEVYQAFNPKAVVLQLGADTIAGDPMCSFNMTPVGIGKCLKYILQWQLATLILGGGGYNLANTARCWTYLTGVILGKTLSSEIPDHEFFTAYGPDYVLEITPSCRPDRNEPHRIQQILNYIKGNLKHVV

[3] = molecular target: T2, Protein deacetylase HDAC6 (Homo sapiens, UniProt Q9UBN7); assay: Inhibition of recombinant human HDAC6 using Boc-Lys(Ac)-AMC as substrate incubated for 60 mins by fluorimetric assay
T2 sequence (Q9UBN7 whole entry): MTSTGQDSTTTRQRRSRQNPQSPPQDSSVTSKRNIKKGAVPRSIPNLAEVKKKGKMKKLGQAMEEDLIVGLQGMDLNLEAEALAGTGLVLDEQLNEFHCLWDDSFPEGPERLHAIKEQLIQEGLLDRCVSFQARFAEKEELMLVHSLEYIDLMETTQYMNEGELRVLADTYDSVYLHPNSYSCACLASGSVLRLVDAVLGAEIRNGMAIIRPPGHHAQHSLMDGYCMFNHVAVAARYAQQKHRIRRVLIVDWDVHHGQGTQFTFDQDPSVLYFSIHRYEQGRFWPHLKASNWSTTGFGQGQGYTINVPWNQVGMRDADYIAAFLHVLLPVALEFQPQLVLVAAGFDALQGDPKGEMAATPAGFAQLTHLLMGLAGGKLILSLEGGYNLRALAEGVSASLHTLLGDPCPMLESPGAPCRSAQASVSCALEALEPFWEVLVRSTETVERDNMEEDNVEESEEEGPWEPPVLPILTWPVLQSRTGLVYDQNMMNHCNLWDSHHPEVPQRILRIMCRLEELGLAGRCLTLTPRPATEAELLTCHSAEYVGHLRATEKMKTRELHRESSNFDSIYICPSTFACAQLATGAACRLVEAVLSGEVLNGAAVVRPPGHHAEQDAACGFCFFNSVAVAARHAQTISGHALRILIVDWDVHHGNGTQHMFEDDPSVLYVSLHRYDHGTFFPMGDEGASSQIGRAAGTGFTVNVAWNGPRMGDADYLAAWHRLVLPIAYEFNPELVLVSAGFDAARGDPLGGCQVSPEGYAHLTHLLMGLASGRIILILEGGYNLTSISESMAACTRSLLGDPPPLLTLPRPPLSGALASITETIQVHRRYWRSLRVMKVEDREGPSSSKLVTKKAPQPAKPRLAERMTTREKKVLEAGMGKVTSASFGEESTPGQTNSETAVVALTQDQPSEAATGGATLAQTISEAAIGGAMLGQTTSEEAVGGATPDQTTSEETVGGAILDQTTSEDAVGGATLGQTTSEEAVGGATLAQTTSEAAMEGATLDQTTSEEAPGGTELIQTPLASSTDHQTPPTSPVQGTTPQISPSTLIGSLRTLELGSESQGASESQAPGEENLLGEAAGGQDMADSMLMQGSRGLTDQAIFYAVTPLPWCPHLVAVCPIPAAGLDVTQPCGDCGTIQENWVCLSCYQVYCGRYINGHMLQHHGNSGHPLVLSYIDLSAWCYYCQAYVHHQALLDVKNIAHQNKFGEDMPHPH

[4] = Resistance index, ratio of IC50 for human K562/A02 cells to IC50 for human K562 cells; format: functional; set-up: reference not given here
K562/A02 [5] = assay: Induction of apoptosis in human K562/A02 cells assessed as late apoptotic cells at 1 uM incubated for 48 hrs by annexin V and propidium iodide staining based flow cytometry (reference value: 0.83 %); format: functional
K562/A02 [6] = assay: Effect on P-gp activity in human K562/A02 cells; format: cell-based; settings: filed as modulator
K562/A02 [7] = assay: Effect on P-gp expression in human K562/A02 cells overexpressing P-gp; format: functional, cell-based
K562/A02 [8] = assay: Induction of apoptosis in human K562/A02 cells assessed as late apoptotic cells at 3 uM incubated for 48 hrs by annexin V and propidium iodide staining based flow cytometry (reference value: 0.83 %); format: functional
K562/A02 [9] = assay: Induction of apoptosis in human K562/A02 cells assessed as increase in cleaved caspase 3 expression incubated for 48 hrs by Western blot analysis; format: functional, cell-based; settings: dose microM 1-3, time 48.0 hrs
K562/A02 [10] = assay: Cytotoxicity against human K562/A02 cells at 3 uM incubated for 24 hrs in presence of ROS scavenger, NAC by MTT assay; format: functional, cell-based
K562/A02 [11] = assay: Induction of apoptosis in human K562/A02 cells assessed as early apoptotic cells at 3 uM incubated for 48 hrs by annexin V and propidium iodide staining based flow cytometry (reference value: 1.42 %); format: functional
K562/A02 [12] = assay: Induction of apoptosis in human K562/A02 cells assessed as viable cells at 3 uM incubated for 48 hrs by annexin V and propidium iodide staining based flow cytometry (reference value: 92.94 %); format: functional; settings: read-out: Activity
K562/A02 [13] = assay: Induction of ROS generation in human K562/A02 cells at 3 uM in presence of ROS scavenger, NAC by DCFHA-DA based assay; format: functional, cell-based
K562/A02 [14] = assay: Induction of apoptosis in human K562/A02 cells assessed as viable cells at 1 uM incubated for 48 hrs by annexin V and propidium iodide staining based flow cytometry (reference value: 92.94 %); format: functional; settings: read-out: Activity
K562/A02 [15] = assay: Induction of apoptosis in human K562/A02 cells assessed as necrotic cells at 3 uM incubated for 48 hrs by annexin V and propidium iodide staining based flow cytometry (reference value: 4.81 %); format: functional
K562/A02 [16] = assay: Induction of apoptosis in human K562/A02 cells assessed as increase in Bax expression incubated for 48 hrs by Western blot analysis; format: functional, cell-based; settings: dose microM 1-3, time 48.0 hrs
K562/A02 [17] = assay: Up regulation of acetylated histone H4 expression level in human K562/A02 cells at 1 to 3 uM measured after 48 hrs by Western blot analysis; format: functional, cell-based; settings: dose microM 1-3, time 48.0 hrs
K562/A02 [18] = assay: Up regulation of acetylated histone H3 expression level in human K562/A02 cells at 1 to 3 uM measured after 48 hrs by Western blot analysis; format: functional, cell-based; settings: dose microM 1-3, time 48.0 hrs
K562/A02 [19] = assay: Induction of apoptosis in human K562/A02 cells assessed as necrotic cells at 1 uM incubated for 48 hrs by annexin V and propidium iodide staining based flow cytometry (reference value: 4.81 %); format: functional
K562 [20] = assay: Induction of ROS generation in human K562 cells at 1 to 3 uM by DCFHA-DA based assay; format: functional, cell-based; settings: dose microM 1-3
K562/A02 [21] = assay: Induction of apoptosis in human K562/A02 cells assessed as early apoptotic cells at 1 uM incubated for 48 hrs by annexin V and propidium iodide staining based flow cytometry (reference value: 1.42 %); format: functional
K562/A02 [22] = assay: Induction of apoptosis in human K562/A02 cells assessed as increase in cleaved PARP expression incubated for 48 hrs by Western blot analysis; format: functional, cell-based; settings: dose microM 1-3, time 48.0 hrs
K562/A02 [23] = assay: Induction of ROS generation in human K562/A02 cells by DCFHA-DA based assay; format: functional, cell-based; settings: dose microM 1-3
K562/A02 [24] = assay: Induction of apoptosis in human K562/A02 cells assessed as decrease in Bcl2 expression incubated for 48 hrs by Western blot analysis; format: functional, cell-based; settings: dose microM 1-3, time 48.0 hrs

Chain of Histone deacetylase 1 (Q13547 whole entry): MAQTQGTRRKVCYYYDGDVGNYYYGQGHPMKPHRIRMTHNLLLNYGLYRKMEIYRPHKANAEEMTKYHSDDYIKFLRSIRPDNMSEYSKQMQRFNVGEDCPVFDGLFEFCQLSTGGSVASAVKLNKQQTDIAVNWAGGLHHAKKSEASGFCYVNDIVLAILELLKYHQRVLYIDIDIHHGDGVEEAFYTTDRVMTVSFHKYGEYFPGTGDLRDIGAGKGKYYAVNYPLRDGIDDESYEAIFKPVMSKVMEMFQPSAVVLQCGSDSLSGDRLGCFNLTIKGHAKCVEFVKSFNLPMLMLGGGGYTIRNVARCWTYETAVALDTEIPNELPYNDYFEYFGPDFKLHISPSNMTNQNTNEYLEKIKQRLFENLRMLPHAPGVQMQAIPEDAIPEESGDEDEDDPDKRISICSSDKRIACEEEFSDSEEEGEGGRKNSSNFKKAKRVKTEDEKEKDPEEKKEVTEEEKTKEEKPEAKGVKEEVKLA

Structure (SMILES): CN(C)C(=S)NN=C(c1ccccn1)c1ccccn1
IC50 (Histone deacetylase 1): > 5000 nM
IC50 (K562 [1]): 3430 nM
IC50 (K562/A02 [2]): 3020 nM
IC50 (Histone deacetylase 8): > 5000 nM
IC50 [3]: > 5000 nM
Ratio IC50 [4]: 0.88

Structure (SMILES): O=C(CCCCCNC(=S)N/N=C(\c1ccccc1)c1ccccn1)NO
IC50 (K562 [1]): 2140 nM
IC50 (K562/A02 [2]): 2030 nM
Ratio IC50 [4]: 0.95

Structure (SMILES): COc1ccccc1/C(C)=N/NC(=S)NCCCC(=O)NO
IC50 (K562 [1]): > 10000 nM
IC50 (K562/A02 [2]): > 10000 nM

Structure (SMILES): C/C(=N\NC(=S)NCCCC(=O)NO)c1cccc([N+](=O)[O-])c1
IC50 (K562 [1]): > 10000 nM
IC50 (K562/A02 [2]): > 10000 nM

Structure (SMILES): O=C(CCCCCNC(=S)N/N=C(\c1ccccc1)c1ccccc1F)NO
IC50 (K562 [1]): 4630 nM
IC50 (K562/A02 [2]): 6010 nM
Ratio IC50 [4]: 1.3

Structure (SMILES): Cc1ccccc1/C(=N/NC(=S)NCCCCCC(=O)NO)c1ccccc1
IC50 (K562 [1]): 3510 nM
IC50 (K562/A02 [2]): 4220 nM
Ratio IC50 [4]: 1.2

Structure (SMILES): O=C(CCCCCNC(=S)NN=C(c1ccccn1)c1ccccn1)NO
IC50 (K562 [1]): 2870 nM
IC50 (K562/A02 [2]): 2180 nM
Ratio IC50 [4]: 0.76

Structure (SMILES): O=C(CCCCCCC(=O)Nc1ccccc1)NO [VORINOSTAT]
IC50 (K562/A02 [2]): 3130 nM

Further compounds by falling IC50 (K562/A02 [2]), results first:

IC50 (K562 [1]): 830 nM
IC50 (K562/A02 [2]): 23400 nM
Structure (SMILES): COc1cccc2c1C(=O)c1c(O)c3c(c(O)c1C2=O)C[C@@](O)(C(=O)CO)C[C@@H]3O[C@H]1C[C@H](N)[C@H](O)[C@H](C)O1.Cl [DOXORUBICIN HYDROCHLORIDE]
Ratio IC50 [4]: 28.21

IC50 (K562 [1]): 1910 nM
IC50 (K562/A02 [2]): 1890 nM
Structure (SMILES): COc1cccc(/C(C)=N/NC(=S)NCCCCCC(=O)NO)c1
Ratio IC50 [4]: 0.98

IC50 (Histone deacetylase 1): 71.1 nM
IC50 (K562 [1]): 1630 nM
IC50 (K562/A02 [2]): 940 nM
IC50 (Histone deacetylase 8): > 5000 nM
IC50 [3]: 46.8 nM
Structure (SMILES): O=C(CCCCCNC(=S)N/N=C(\c1ccccc1)c1cccc([N+](=O)[O-])c1)NO
Ratio IC50 [4]: 0.58

IC50 (Histone deacetylase 1): 38.6 nM
IC50 (K562 [1]): 960 nM
IC50 (K562/A02 [2]): 440 nM
IC50 (Histone deacetylase 8): > 5000 nM
IC50 [3]: 34.6 nM
Structure (SMILES): C/C(=N\NC(=S)NCCCCCC(=O)NO)c1ccc(Br)cc1
Activity (K562/A02 [5]): 52%
Activity (K562/A02 [6]): Active
Activity (K562/A02 [7]): Active
Activity (K562/A02 [8]): 53.69%
Activity (K562/A02 [9]): Dose-dependent effect
Activity (K562/A02 [10]): inactive
Activity (K562/A02 [11]): 22.28%
viability at 3 µM (K562/A02 [12]): 18.9%
Activity (K562/A02 [13]): inactive
viability at 1 µM (K562/A02 [14]): 27.2%
Activity (K562/A02 [15]): 5.18%
Activity (K562/A02 [16]): Dose-dependent effect
Activity (K562/A02 [17]): Active
Activity (K562/A02 [18]): Active
Activity (K562/A02 [19]): 4.4%
Activity (K562 [20]): inactive
Activity (K562/A02 [21]): 16.35%
Ratio IC50 [4]: 0.46
Activity (K562/A02 [22]): Dose-dependent effect
Activity (K562/A02 [23]): Dose-dependent effect
Activity (K562/A02 [24]): Dose-dependent effect
